Series [1] deals with pancreatic cancer MIA-Paca2 cell. To be noted: subcutaneous xenograft tumor model of pancreatic cancer MIA-Paca2 cell; cited from earlier work.
Another series deals with KRAS G12C. The settings on record: cited from earlier work.
For the next series, the system named is A375 cells. Kind of series: Cell proliferation assay (CellTiter-Glo), A375. The format is cell-based, Human. The method, then:
(§1) The effect of the compound on cell proliferation was examined on NC-H358, MA-PA-CA-2, A375, SW1463, and A427 cells.
Medium for A375 cell line: 89% DMEM medium+10% fetal bovine serum+1% P/S
(§2) • 1. The medium and pancreatin used in the process of cell passaging were pre-heated in a water bath at 37° C. • 2. The cells were rinsed with pancreatin and digested with pancreatin until the cells were detached. A culture solution was added, and the cells and the culture solution were well mixed to stop the digestion. • 3. The cells were pipetted into a 15 mL centrifuge tube, 0.01 mL of cell suspension was pipetted onto a count plate, and cells were counted. • 4. According to the cell densities shown in the table below, a proper amount of each type of cells was transferred to a 15 mL centrifuge tube and made up to a volume of 9 mL with a corresponding cell culture solution.
• 5. […]
(§3) • 1. On the day of compound treatment, the day-0 test plate was removed from the incubator, 50 µL of Cell Titer Glo was added, and the plate was centrifuged at 1000 rpm for 10 s, shaken at room temperature for 10 min, then centrifuged again at 1000 rpm for 10 s, and read on Envision. • 2. […] To each well of the 96-well plates, 50 µL of Cell Titer-Glo was added, and the plates were centrifuged at 1000 rpm for 10 s, shaken at room temperature for 10 min, then centrifuged again at 1000 rpm for 10 s, and read on Envision. • 3. […]
On the technique in general: ATP-based viability assays read luminescence as a measure of living cells.

In another series the test system is A427 cells. Briefly: Cell proliferation assay (CellTiter-Glo), A427. The format is cell-based, Human. The method, then: as §1
Medium for A427 cell line: 89% EMEM medium+10% fetal bovine serum+1% P/S
as §2
• 5. […]
as §3

A further series deals with MIA-PA-CA-2 cells. Kind of series: Cell proliferation assay (CellTiter-Glo), MIA-PA-CA-2. In kind it is cell-based, Human. The method, then:
as §1
Medium for MIA-PA-CA-2 cell line: 86.5% DMEM medium+10% fetal bovine serum+2.5% horse serum+1% P/S
(§4) • 1. The medium and pancreatin used in the process of cell passaging were pre-heated in a water bath at 37° C. • 2. The cells were rinsed with pancreatin and digested with pancreatin until the cells were detached. A culture solution was added, and the cells and the culture solution were well mixed to stop the digestion. • 3. The cells were pipetted into a 15 mL centrifuge tube, 0.01 mL of cell suspension was pipetted onto a count plate, and cells were counted. • 4. […]
as §3

The subject of the next series is SW1463 cells. Briefly: Cell proliferation assay (CellTiter-Glo), SW1463. In kind it is cell-based, Human. The method, then:
as §1
Medium for SW1463 cell line: 89% Leibovit2 sL-15 medium+10% fetal bovine serum+1% P/S
as §4, §3

The subject of a further series is NCI-H358 cells. Briefly: Cell proliferation assay (CellTiter-Glo), NCI-H358. In kind it is cell-based, Human. The method, then: as §1
Medium for H358 cell line: 89% RPMI1640 medium+10% fetal bovine serum+1% P/S
as §2
• 5. […]
as §3

The nature of series [2]: Pressure stability of crystal form (hydraulic press, XRPD). The format is physicochemical. The protocol:
The Hydraulic press experiment is carried out on an SYP-5BS manual press, and the pressure put on to the sample is about 350 MPa.
Crystal form C of the compound of formula (I) was added to a circular mold (6 mm in diameter) and pressurized to about 350 MPa. A small piece of the sheet-like sample was directly taken for XRPD analysis.

Series [3] is described as follows: Solid stability of crystal form (XRPD and HPLC). The format is physicochemical. The method, then:
The purity and solubility of a sample are determined through a high performance liquid chromatograph Agilent 1260 HPLC.
To evaluate the solid stability of crystal form C of the compound of formula (I), crystal form C of the compound of formula (I) was subjected to stability testing under affecting factor conditions (high temperature, high humidity, and light), 60° C./75% RH conditions, and 40° C./75% RH conditions. Crystal form C was placed under a high-temperature condition (60° C., closed) and a high-humidity condition (92.5% RH, wrapped in a sealing film, with 5 small holes made) for 1 week and 2 weeks, placed in a closed container in visible light and ultraviolet light (a light-shielding control group was set at the same time, and the sample was wrapped in tinfoil) according to the ICH conditions (visible light illumination reached 1.2E+06 Lux hrs, and ultraviolet light illumination reached 200 W·hrs/m2), and meanwhile placed under 60° C./75% RH conditions (wrapped in a sealing film, with 5 small holes made) for 1 month and 2 months and under 40° C./75% RH conditions (wrapped in a sealing film, with 5 small holes made) for 1 month, 2 months, and 3 months. All the stability samples were tested for crystal form change by XRPD analysis and were analyzed by HPLC.

Where [4] appears, read: Light-shielding control group, simultaneously with visible + ultraviolet.
The mark [5] stands for this setting: Visible + ultraviolet (ICH conditions), 1.2E+06 Lux · hrs, 300 W · hrs/m^2.

Where only a bound is given, the exact number is not on record here.

With `C=CC(=O)N1CCN(c2ncnc3c(F)c(-c4c(O)cccc4F)c(Cl)cc23)CC1` [ARS-1620], the tumor growth inhibition result in series [1] is reported as “can effectively inhibit tumor growth”. Moreover, in the series on KRAS G12C, the “cell antiproliferative activity at the cellular level” value is “nM level”.

Take `C=CC(=O)N1CCN(c2nc(N3CC(N(CC)CC)C3)nc3c(=O)n(-c4c(N)c(Cl)cc(Cl)c4F)c(C(F)(F)F)cc23)CC1` [Compound of formula (I)]: the IC50 (as a rule, the concentration needed to halve the response being measured) in the series on A375 cells (Homo sapiens, A-375, A375, 72 h incubation, CellTiter-Glo) was 4640 ± 89.8 nM; in the series with A427 cells (Homo sapiens, A-427, A427, 72 h incubation, CellTiter-Glo), greater than 6980 nM; with MIA-PA-CA-2 cells (Homo sapiens, MIA PaCa-2, MIA-PA-CA-2, 72 h incubation, CellTiter-Glo), 34 ± 7.03 nM; with SW1463 cells (Homo sapiens, SW1463, 144 h incubation, CellTiter-Glo) it was 112 ± 32.7 nM; with NCI-H358 cells (Homo sapiens, NCI-H358, 120 h incubation, CellTiter-Glo), 13 ± 1.85 nM. Further, the activity on cell result in the series with A375 cells (melanoma cell A375) and in the series with A427 cells (human lung cancer cell A427) was “weak activity” throughout. For the same compound, the “inhibitory activity against proliferation” value in the series on MIA-PA-CA-2 cells (pancreatic cancer cell MIA-PA-CA-2), with SW1463 cells (human rectal adenocarcinoma cell SW1463) and with NCI-H358 cells (human non-small cell lung cancer cell NCI-H358) was “good inhibitory activity” in each case.

`C=CC(=O)N1CCN(c2nc(N3CC(N(CC)CC)C3)nc3c(=O)n(-c4c(N)c(Cl)cc(Cl)c4F)c(C(F)(F)F)cc23)CC1` [crystal form C]: the “pressure stability (conclusion)” value in series [2] (about 350 MPa) was “good pressure stability”. The “crystal form change after being pressed (XRPD)” value in series [2] (pressure of about 350 MPa) is “did not change”. For the same compound, the Crystal form change entry in series [3] (40° C./75% RH, 1 month) is given as “Unchanged”; in series [3] (40° C./75% RH, 2 months), “Unchanged”; in series [3] (40° C./75% RH, 3 months), “Unchanged”; in series [3] (60° C., closed, 1 week), “Unchanged”; in series [3] (60° C., closed, 2 weeks), “Unchanged”; in series [3] (60° C./75% RH, 1 month) it was “Unchanged”. Further, the Crystal form change result in series [3] (60° C./75% RH, 2 months) is “Unchanged”; in [3] (92.5% RH, 1 week), “Unchanged”; in series [3] (92.5% RH, 2 weeks) it was “Unchanged”; in [3] (setting [4]) it was “Unchanged”; in [3] (Starting sample), “Unchanged”; in [3] (setting [5]), “Unchanged”. For the same compound, the “Purity (%)” value in series [3] (40° C./75% RH, 1 month) was found to be 98.00%; in series [3] (40° C./75% RH, 2 months) it was 97.92%; in series [3] (40° C./75% RH, 3 months), 98.02%; in series [3] (60° C., closed, 1 week), 97.99%; in series [3] (60° C., closed, 2 weeks) it was 97.98%; in series [3] (60° C./75% RH, 1 month), 97.92%. Moreover, the “Purity (%)” value in [3] (60° C./75% RH, 2 months) stood at 97.98%; in series [3] (92.5% RH, 1 week), 98.03%; in series [3] (92.5% RH, 2 weeks) it was 98.00%; in [3] (setting [4]) it was 98.00%; in [3] (Starting sample), 97.85%; in [3] (setting [5]) it was 96.62%. The Relative purity in series [3] (40° C./75% RH, 1 month) is recorded as 100.2%; in [3] (40° C./75% RH, 2 months), 100.1%; in series [3] (40° C./75% RH, 3 months), 100.2%; in [3] (60° C., closed, 1 week), 100.1%; in [3] (60° C., closed, 2 weeks), 100.1%; in series [3] (60° C./75% RH, 1 month), 100.1%. The Relative purity in series [3] (60° C./75% RH, 2 months) was found to be 100.1%; in series [3] (92.5% RH, 1 week) it was 100.2%; in [3] (92.5% RH, 2 weeks) it was 100.2%; in [3] (setting [4]) it was 100.2%; in series [3] (setting [5]), 98.7%. Besides, the “solid stability (conclusion)” value in series [3] (high temperature, high humidity, light, 60° C./75% RH, 40° C./75% RH) was “good solid stability”.

Values taken from patent US20250268901A1, “CRYSTAL FORM OF AZETIDINE-SUBSTITUTED COMPOUND” (MEDSHINE DISCOVERY INC., priority 2020, published 2025).
